How the values were obtained:
Assay type in all cases: cell-based
[1] = system: Apolipoprotein C3 (ApoC3); test: Expression profiling (Agilent whole human genome microarray), ApoC3 mRNA in human tumor cell lines; conditions: for Gene expression value, Apolipoprotein C3 (ApoC3), treated vs untreated: 50 μM, 24 hours
Method: (§1) The study includes three human tumor cell lines: A549, Panc-1, and SK-OV-3. The lines are each grown in two flasks cultured to roughly 40% confluence. One of the flasks is treated by addition of compound to the culture media at a various concentrations, i.e. 10 μM, 20 μM 50 μM, or 100 μM. The other, mock treated, flask is treated only with the vehicle used to solubilize and deliver the drug. RNA extracted from the pairs of treated and untreated samples is subjected to microarray analysis on Agilent Whole Human Genome Microarrays (G4112F). Each analysis reports the difference in abundance of messenger RNAs for each of the 41,000 specific mRNA detectors on the array. This direct comparison of the treated versus untreated samples for each cell line provides extremely sensitive detection of changes in mRNA abundance resulting from the drug treatment. As each cell line comparison is self-normalized, the results can be compared across the samples with high confidence.
(§2) Three human tumor cell lines, A549, Panc-1, and SK-OV-3, are each grown in two flasks cultured to roughly 40% confluence. One of the flasks is treated by addition of compound to the culture media at concentrations of 10 μM, 50 μM and 100 μM. The other, mock treated, flask is treated only with the vehicle used to solubilize and deliver the drug. All flasks are cultured for a further 24 hours, and then the cells are scraped free and washed in ice-cold PBS, then collected by centrifugation. The harvested cells are immediately frozen, and stored at −80° C. or colder.
(§3) Total RNA is prepared from the frozen tissue samples using Trizol-based cell lysis followed by 65° C. hot phenol extraction and RNeasy chromatography purification. The purified RNA samples are analyzed spectrophotometrically. The concentration of RNA is determined by measuring the absorbance at 260 nm (A260). Given an absorbance of 1 unit at 260 nm corresponds to […] of RNA per ml when measured at pH 11.
(§4) All RNAs are labeled using 1 microgram of RNA as input to an Agilent Low Input Labeling reaction.
(§5) Test RNA is labeled with Cy5 (650 nm emitter) and reference RNA is labeled with Cy3 (550 nm emitter) nucleotides. Labeling, hybridizations and subsequent washings are carried out on Agilent H1Av2 human expression chips. The resulting hybridized chips are scanned on an Agilent microarray scanner, and intensity information for each detector spot is extracted from the scanned image using Agilent feature extraction software. […]
(§6) After the ratios have been calculated for the normalized data, the various control and duplicate samples are analyzed to build a model of how reproducible the results are, and how this reproducibility is varies depending on signal strength and noise. […]

[2] = system: Lipoprotein Lipase mRNA (LPL); test: Expression profiling (Agilent whole human genome microarray), LPL mRNA in human tumor cell lines; conditions: for Gene expression value, Lipoprotein Lipase mRNA (LPL), treated vs untreated: 50 μM, 24 hours
Method: as §1, §2, §3, §4, §5, §6

[3] = system: Apolipoprotein C2 (ApoC2); test: Expression profiling (Agilent whole human genome microarray), ApoC2 mRNA in human tumor cell lines; conditions: for Gene expression value, Apolipoprotein C2 (ApoC2), treated vs untreated: 50 μM, 24 hours
Method: as §1, §2, §3, §4, §5, §6

[4] = human tumor cell lines SKOV-3, A549 and Panc-1, summary of Table 1

Question: Which results are given for COCCCCCC[C@@H]1C[C@@H]2[C@H](CC[C@]3(C)C(O)CC[C@@H]23)c2ccc(O)cc21 (stereo partly drawn) [Compound 21, (6R,8R,9S,13S,14S)-6-(6-methoxyhexyl)-13-methyl-7,8,9,11,12,13,14,15,16,17-decahydro-6H-cyclopenta[a]phenanthrene-3,17-diol]?
Answer: Gene expression value, Apolipoprotein C3 (ApoC3), treated vs untreated ([1]; A549 cells): 0 log2; Gene expression value, Apolipoprotein C3 (ApoC3), treated vs untreated ([1]; Panc-1 cells): 0 log2; Gene expression value, Apolipoprotein C3 (ApoC3), treated vs untreated ([1]; SKOV-3 cells): 0 log2; Regulation of the ApoC3 gene (in words) [1, 4]: but not the ApoC3 gene; Gene expression value, Lipoprotein Lipase mRNA (LPL), treated vs untreated ([2]; A549 cells, p = 0.0018): 2.95 log2; Gene expression value, Lipoprotein Lipase mRNA (LPL), treated vs untreated ([2]; Panc-1 cells): 3.90 log2; Gene expression value, Lipoprotein Lipase mRNA (LPL), treated vs untreated ([2]; SKOV-3 cells, p = 0.008): 2.77 log2; Regulation of the LPL gene (in words) [2, 4]: up-regulate; Gene expression value, Apolipoprotein C2 (ApoC2), treated vs untreated ([3]; A549 cells): 7.21 log2; Gene expression value, Apolipoprotein C2 (ApoC2), treated vs untreated ([3]; Panc-1 cells): 6.91 log2; Gene expression value, Apolipoprotein C2 (ApoC2), treated vs untreated ([3]; SKOV-3 cells): 3.89 log2; Regulation of the ApoC2 gene (in words) [3, 4]: up-regulate

Reference: US20150265630A1, “6-Substituted Estradiol Derivatives for the Treatment of Alzheimer's Disease” (Endece LLC, priority 2014, published 2015)
